Measurements: patent US7582629B2, “Derivatives of isothiazol-3(2H)-one 1,1-dioxides as liver X receptor modulators” (AstraZeneca AB, priority 2005, dated 2009)

Target: T1, LXRα (Homo sapiens, UniProt Q13133)
T1 construct: human LXRalpha (amino acid 205-447); made in house; host or cells: E. coli
T1 sequence (Q13133 205-447): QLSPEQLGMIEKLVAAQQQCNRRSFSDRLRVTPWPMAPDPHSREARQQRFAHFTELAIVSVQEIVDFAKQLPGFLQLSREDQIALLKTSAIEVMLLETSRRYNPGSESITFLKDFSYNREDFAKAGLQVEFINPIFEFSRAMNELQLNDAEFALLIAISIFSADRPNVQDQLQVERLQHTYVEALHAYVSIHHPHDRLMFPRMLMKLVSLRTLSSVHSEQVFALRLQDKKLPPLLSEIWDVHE
Assay: Co-activator recruitment assay (LXR-LBD / SRC-1 peptide, time-resolved fluorescence)
Format: biochemical
Conditions: coactivator recruitment assays
Excerpt: The Ligand Binding Domain (LBD) of human LXRalpha (amino acid 205-447) and LXRbeta (amino acid 216-461) was produced by recombinant techniques in E. coli. A fragment of the human Steroid Receptor Co-Activator-1 (SRC-1) was produced as a synthetic peptide. An anti-6×His-antibody coupled with Europium (Eu^3+) was used to recognize the His-tag on the LXR-LBD and Allophycocyanin (APC) coupled to streptavidin was used to recognize the biotinylated SRC-1. Agonist binding to LXRalpha or LXRbeta enhances the affinity of LXR towards SRC-1 and thereby brings Eu^3+ and APC in close proximity. Eu^3+ is excited at 337 nm and emitts light at 620 nm. This emission, when in close proximity, excites APC to emit light at 665 nm.
Compounds (10 mM) in DMSO were diluted (⅓) in DMSO in 10 concentrations. […]
The assay mix has the following final concentrations; LXRalpha mix: 0.06 μg/mL Eu-labelled anti-6×His Ab, […] Streptavidin APC, 30 nM SRC-1 peptide and 0.9 μg/mL LXRalpha in buffer and LXRbeta mix; 0.06 μg/mL Eu-labelled anti-6×His Ab, 1.15 μg/1 mL Streptavidin APC, 90 nM SRC-1 peptide and 0.2 μg/mL LXRbeta in buffer. Time-resolved fluorescence readings were done in a Wallac Victor reader at 665 nm followed by reading at 615 nm. […]

| EC50 | Compound |
| --- | --- |
| 75 nM | O=C1C(Nc2ccc(OC(F)F)cc2)=C(c2ccccc2)S(=O)(=O)N1Cc1ccc(OC(F)F)cc1 [Example 14, 2-[4-(Difluoromethoxy)benzyl]-4-{[4-(difluoromethoxy)phenyl]amino}-5-phenylisothiazol-3(2H)-one 1,1-dioxide] |
| 270 nM | COCCN1C(=O)C(Nc2ccc3oc(C(C)=O)cc3c2)=C(c2ccccc2)S1(=O)=O [Example 13, 4-[(2-Acetyl-1-benzofuran-5-yl)amino]-2-(2-methoxyethyl)-5-phenylisothiazol-3(2H)-one 1,1-dioxide] |
